Results as given in the kinase profiling compilation of Christmann-Franck et al. (2016).

What was measured:
Assay in all cases: radiometric filter-binding kinase assay, Kinase HotSpot
Settings in all cases: compound 0.5 µM; ATP 10 µM
[1] = molecular target: DYRK1A (human) (UniProt Q13627)
[2] = molecular target: DAPK3 (human) (UniProt O43293)
[3] = molecular target: MAPKAPK3 (human) (UniProt Q16644)
[4] = molecular target: PRKCG (human) (UniProt P05129)
[5] = molecular target: TSSK1B (human) (UniProt Q9BXA7)
[6] = molecular target: ROCK1 (human) (UniProt Q13464)
[7] = molecular target: PAK2 (human) (UniProt Q13177)
[8] = molecular target: NEK6 (human) (UniProt Q9HC98)
[9] = tested on: SGK1 (human), O00141 [S422D]
[10] = molecular target: PBK (human) (UniProt Q96KB5)
[11] = molecular target: SRPK2 (human) (UniProt P78362)
[12] = molecular target: PHKG2 (human) (UniProt P15735)
[13] = molecular target: IKBKE (human) (UniProt Q14164)
[14] = molecular target: FRK (human) (UniProt P42685)
[15] = molecular target: MST1R (human) (UniProt Q04912)
[16] = molecular target: EPHA3 (human) (UniProt P29320)
[17] = molecular target: AURKA (human) (UniProt O14965)
[18] = molecular target: CDK1 CCNA2 (human) (UniProt P06493+P20248)
[19] = molecular target: PRKCH (human) (UniProt P24723)
[20] = molecular target: GSK3A (human) (UniProt P49840)
[21] = molecular target: FLT3 (human) (UniProt P36888)
[22] = molecular target: MAP2K2 (human) (UniProt P36507)
[23] = molecular target: EPHA1 (human) (UniProt P21709)
[24] = molecular target: FGFR3 (human) (UniProt P22607)
[25] = molecular target: PRKCB1 (human) (UniProt P05771)
[26] = molecular target: CHEK2 (human) (UniProt O96017)
[27] = molecular target: FLT1 (human) (UniProt P17948)
[28] = molecular target: NEK7 (human) (UniProt Q8TDX7)
[29] = molecular target: PRKG2 (human) (UniProt Q13237)
[30] = molecular target: HIPK2 (human) (UniProt Q9H2X6)
[31] = molecular target: CAMK4 (human) (UniProt Q16566)
[32] = molecular target: SRPK1 (human) (UniProt Q96SB4)
[33] = molecular target: MAPKAPK5 (human) (UniProt Q8IW41)
[34] = molecular target: CAMKK1 (human) (UniProt Q8N5S9)
[35] = molecular target: CSNK1G3 (human) (UniProt Q9Y6M4)
[36] = molecular target: GRK5 (human) (UniProt P34947)
[37] = molecular target: MARK4 (human) (UniProt Q96L34)
[38] = molecular target: PRKD3 (human) (UniProt O94806)
[39] = molecular target: GRK4 (human) (UniProt P32298)
[40] = molecular target: MELK (human) (UniProt Q14680)
[41] = molecular target: CDK5 CDK5R1 p25 (human) (UniProt Q00535+Q15078)

Sequence of GRK4 (human) (P32298 whole entry, looked up): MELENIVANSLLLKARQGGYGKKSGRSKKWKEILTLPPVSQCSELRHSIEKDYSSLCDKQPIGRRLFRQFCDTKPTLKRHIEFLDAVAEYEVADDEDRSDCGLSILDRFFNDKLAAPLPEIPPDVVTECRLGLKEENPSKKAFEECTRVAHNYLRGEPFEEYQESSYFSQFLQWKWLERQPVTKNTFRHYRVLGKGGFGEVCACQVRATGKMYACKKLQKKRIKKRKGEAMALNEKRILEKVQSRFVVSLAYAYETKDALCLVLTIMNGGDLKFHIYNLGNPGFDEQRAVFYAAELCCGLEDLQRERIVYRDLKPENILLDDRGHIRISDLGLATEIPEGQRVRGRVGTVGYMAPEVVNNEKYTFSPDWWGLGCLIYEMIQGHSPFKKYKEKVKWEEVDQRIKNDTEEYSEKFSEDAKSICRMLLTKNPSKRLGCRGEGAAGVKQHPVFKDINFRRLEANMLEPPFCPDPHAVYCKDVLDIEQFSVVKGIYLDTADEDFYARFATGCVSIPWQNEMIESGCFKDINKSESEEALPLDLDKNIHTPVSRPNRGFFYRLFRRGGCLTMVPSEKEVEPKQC
Sequence of MAPKAPK5 (human) (Q8IW41 whole entry, looked up): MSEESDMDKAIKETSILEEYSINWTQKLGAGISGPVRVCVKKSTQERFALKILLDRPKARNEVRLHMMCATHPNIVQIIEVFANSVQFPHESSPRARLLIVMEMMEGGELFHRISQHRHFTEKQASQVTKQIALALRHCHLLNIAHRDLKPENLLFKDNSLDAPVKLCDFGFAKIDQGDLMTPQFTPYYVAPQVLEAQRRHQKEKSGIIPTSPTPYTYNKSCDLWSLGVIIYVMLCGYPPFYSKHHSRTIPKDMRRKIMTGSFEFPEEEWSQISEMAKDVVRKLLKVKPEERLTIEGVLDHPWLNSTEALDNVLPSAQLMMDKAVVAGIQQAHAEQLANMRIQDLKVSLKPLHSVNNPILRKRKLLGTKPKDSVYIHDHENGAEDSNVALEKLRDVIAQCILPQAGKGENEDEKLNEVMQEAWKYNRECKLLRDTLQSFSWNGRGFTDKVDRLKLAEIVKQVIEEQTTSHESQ
Sequence of SRPK2 (human) (P78362 whole entry, looked up): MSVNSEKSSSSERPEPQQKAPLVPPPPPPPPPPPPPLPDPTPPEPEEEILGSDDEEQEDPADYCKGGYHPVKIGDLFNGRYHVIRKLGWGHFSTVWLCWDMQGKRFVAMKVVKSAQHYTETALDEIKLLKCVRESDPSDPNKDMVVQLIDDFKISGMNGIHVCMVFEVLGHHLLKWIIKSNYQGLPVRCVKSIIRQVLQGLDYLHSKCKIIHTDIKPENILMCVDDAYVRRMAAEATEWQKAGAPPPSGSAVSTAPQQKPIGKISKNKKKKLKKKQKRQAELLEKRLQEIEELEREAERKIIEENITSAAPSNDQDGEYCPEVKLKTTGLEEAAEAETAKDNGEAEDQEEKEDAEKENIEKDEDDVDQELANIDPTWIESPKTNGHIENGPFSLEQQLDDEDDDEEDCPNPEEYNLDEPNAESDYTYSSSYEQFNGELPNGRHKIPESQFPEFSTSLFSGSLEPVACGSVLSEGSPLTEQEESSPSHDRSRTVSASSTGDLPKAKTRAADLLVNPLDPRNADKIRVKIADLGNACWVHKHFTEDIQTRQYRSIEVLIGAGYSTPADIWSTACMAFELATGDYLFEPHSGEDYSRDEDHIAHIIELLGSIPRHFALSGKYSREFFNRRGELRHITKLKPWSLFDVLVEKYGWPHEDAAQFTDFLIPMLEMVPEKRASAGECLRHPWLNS
Sequence of CDK1 CCNA2 (human) (P06493 whole entry, looked up): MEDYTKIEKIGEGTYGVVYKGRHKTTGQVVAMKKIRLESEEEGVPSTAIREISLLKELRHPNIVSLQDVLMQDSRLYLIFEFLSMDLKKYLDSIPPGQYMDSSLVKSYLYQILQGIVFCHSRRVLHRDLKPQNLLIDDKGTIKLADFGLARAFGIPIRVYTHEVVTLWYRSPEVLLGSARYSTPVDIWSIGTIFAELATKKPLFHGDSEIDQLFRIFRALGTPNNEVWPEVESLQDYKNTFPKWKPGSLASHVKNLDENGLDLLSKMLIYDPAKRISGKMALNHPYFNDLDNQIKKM
Sequence of CDK1 CCNA2 (human) (P20248 whole entry, looked up): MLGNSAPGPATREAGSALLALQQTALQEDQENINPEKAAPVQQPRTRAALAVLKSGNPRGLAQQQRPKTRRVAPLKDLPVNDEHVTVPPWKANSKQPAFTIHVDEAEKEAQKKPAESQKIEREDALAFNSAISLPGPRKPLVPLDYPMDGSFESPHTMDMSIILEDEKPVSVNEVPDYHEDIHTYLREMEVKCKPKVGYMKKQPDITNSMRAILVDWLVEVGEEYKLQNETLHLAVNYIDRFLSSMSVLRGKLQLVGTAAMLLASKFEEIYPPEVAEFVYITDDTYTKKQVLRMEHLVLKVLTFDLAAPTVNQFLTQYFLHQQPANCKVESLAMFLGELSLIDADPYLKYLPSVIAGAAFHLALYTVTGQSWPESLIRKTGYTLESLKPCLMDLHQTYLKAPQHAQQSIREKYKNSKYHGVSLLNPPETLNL
Sequence of MAPKAPK3 (human) (Q16644 whole entry, looked up): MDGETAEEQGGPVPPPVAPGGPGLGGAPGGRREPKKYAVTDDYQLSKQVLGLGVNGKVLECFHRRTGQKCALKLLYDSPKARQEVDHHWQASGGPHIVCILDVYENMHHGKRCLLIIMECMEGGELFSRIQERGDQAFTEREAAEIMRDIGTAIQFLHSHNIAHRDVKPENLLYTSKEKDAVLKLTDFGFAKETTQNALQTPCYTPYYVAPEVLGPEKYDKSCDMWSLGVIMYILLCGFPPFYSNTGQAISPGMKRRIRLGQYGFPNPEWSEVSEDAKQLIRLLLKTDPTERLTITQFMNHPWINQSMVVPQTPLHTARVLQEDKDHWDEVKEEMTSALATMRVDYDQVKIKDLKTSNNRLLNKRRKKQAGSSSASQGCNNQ
Sequence of TSSK1B (human) (Q9BXA7 whole entry, looked up): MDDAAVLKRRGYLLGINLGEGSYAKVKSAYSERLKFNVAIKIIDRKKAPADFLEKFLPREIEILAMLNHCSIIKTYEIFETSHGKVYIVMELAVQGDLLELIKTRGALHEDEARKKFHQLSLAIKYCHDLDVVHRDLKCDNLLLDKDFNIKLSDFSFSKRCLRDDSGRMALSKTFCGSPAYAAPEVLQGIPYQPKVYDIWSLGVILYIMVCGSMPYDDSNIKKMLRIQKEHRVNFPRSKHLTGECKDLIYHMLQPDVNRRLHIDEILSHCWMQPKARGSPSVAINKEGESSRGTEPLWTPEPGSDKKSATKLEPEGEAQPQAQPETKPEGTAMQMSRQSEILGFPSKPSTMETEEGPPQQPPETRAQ
Sequence of MELK (human) (Q14680 whole entry, looked up): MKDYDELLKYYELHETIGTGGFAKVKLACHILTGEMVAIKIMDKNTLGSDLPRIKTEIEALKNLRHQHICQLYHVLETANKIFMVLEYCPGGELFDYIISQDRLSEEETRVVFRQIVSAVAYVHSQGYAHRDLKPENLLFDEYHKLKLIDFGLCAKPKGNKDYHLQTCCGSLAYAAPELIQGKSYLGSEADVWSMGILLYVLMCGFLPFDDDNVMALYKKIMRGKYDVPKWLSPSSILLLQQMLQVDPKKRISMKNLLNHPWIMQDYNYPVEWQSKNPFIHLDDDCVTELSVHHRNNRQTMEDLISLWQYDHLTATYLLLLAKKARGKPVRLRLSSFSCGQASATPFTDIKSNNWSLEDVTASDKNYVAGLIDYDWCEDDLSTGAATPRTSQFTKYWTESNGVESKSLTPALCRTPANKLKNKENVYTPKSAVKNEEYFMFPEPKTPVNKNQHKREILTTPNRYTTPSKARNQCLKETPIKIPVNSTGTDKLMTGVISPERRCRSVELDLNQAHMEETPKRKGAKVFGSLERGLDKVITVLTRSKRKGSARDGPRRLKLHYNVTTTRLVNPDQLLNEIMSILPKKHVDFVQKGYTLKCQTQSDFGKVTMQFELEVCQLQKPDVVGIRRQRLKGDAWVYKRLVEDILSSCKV
Sequence of CAMKK1 (human) (Q8N5S9 whole entry, looked up): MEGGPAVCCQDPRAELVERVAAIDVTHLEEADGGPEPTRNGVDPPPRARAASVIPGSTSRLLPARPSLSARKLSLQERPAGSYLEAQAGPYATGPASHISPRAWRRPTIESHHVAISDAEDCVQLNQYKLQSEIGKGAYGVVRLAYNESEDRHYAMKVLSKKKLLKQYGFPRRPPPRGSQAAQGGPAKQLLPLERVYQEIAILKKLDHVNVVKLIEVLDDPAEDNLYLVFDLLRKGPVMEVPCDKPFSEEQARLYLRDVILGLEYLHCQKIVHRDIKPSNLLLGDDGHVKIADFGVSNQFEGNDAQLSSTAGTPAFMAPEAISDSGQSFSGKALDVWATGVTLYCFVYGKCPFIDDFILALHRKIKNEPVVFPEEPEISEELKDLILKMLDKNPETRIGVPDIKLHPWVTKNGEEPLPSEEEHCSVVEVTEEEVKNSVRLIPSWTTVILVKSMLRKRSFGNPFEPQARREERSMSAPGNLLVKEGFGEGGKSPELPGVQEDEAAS
Sequence of GSK3A (human) (P49840 whole entry, looked up): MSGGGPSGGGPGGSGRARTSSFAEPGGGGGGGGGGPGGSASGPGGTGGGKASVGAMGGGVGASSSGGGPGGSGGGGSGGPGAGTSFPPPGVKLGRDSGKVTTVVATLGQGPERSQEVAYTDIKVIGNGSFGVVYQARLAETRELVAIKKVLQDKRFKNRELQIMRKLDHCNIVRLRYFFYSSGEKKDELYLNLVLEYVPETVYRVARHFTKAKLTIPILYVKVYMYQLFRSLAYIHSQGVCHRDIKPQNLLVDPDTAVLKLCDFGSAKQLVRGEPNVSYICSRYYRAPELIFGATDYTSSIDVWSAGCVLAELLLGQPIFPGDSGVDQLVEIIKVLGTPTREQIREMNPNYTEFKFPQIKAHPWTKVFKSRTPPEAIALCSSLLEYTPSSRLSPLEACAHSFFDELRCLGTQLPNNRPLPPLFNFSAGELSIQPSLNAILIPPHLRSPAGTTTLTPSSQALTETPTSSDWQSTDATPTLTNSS

SMILES: COc1cc2c(cc1OC)-c1[nH]nc(Nc3cccc(F)c3)c1C2
- residual activity [1]: 90.3%
- residual activity [2]: 100%
- residual activity [3]: 90.8%
- residual activity [4]: 102%
- residual activity [5]: 71.7%
- residual activity [6]: 87.5%
- residual activity [7]: 99.6%
- residual activity [8]: 105%
- residual activity [9]: 99.8%
- residual activity [10]: 86.8%
- residual activity [11]: 87.8%
- residual activity [12]: 121%
- residual activity [13]: 93.3%
- residual activity [14]: 67.9%
- residual activity [15]: 99.1%
- residual activity [16]: 94.5%
- residual activity [17]: 94.6%
- residual activity [18]: 92.6%
- residual activity [19]: 92.1%
- residual activity [20]: 101%
- residual activity [21]: 25%
- residual activity [22]: 99.8%
- residual activity [23]: 102%
- residual activity [24]: 99.6%
- residual activity [25]: 96%
- residual activity [26]: 96.5%
- residual activity [27]: 82.6%
- residual activity [28]: 100%
- residual activity [29]: 92.5%
- residual activity [30]: 103%
- residual activity [31]: 106%
- residual activity [32]: 101%
- residual activity [33]: 82.3%
- residual activity [34]: 81.5%
- residual activity [35]: 95%
- residual activity [36]: 95.8%
- residual activity [37]: 70.6%
- residual activity [38]: 93.1%
- residual activity [39]: 97.1%
- residual activity [40]: 72.1%
- residual activity [41]: 89%

SMILES: CN[C@@H]1C[C@H]2O[C@@](C)([C@@H]1OC)n1c3ccccc3c3c4c(c5c6ccccc6n2c5c31)C(=O)NC4
- residual activity [2]: 1.91%
- residual activity [12]: 3.42%
- residual activity [14]: 5.5%
- residual activity [34]: -3.13%
- residual activity [37]: -0.0069%
- residual activity [41]: 2.78%

SMILES: COc1cc2c(Nc3ccc(Br)cc3F)ncnc2cc1OCC1CCN(C)CC1
- residual activity [1]: 106%
- residual activity [2]: 90.3%
- residual activity [3]: 98.5%
- residual activity [4]: 93.2%
- residual activity [5]: 96.6%
- residual activity [6]: 99.4%
- residual activity [7]: 103%
- residual activity [8]: 96.9%
- residual activity [9]: 115%
- residual activity [10]: 98.9%
- residual activity [11]: 106%
- residual activity [12]: 99.1%
- residual activity [13]: 85.8%
- residual activity [14]: 79.5%
- residual activity [15]: 93.6%
- residual activity [16]: 57.7%
- residual activity [18]: 100%
- residual activity [19]: 117%
- residual activity [20]: 103%
- residual activity [21]: 43.7%
- residual activity [23]: 31.7%
- residual activity [25]: 89.1%
- residual activity [26]: 62.1%
- residual activity [28]: 99%
- residual activity [29]: 101%
- residual activity [30]: 99.4%
- residual activity [31]: 101%
- residual activity [32]: 97.9%
- residual activity [33]: 94.7%
- residual activity [34]: 90.4%
- residual activity [35]: 98.1%
- residual activity [36]: 95.8%
- residual activity [37]: 99.4%
- residual activity [38]: 91.7%
- residual activity [39]: 102%
- residual activity [40]: 94.4%
- residual activity [41]: 97.8%

SMILES: FC(F)(F)c1ccc(/C=C/c2nc(COc3ccc(CCCCn4ccnn4)cc3)co2)cc1
- residual activity [1]: 105%
- residual activity [2]: 105%
- residual activity [3]: 98.9%
- residual activity [4]: 95.2%
- residual activity [5]: 93.4%
- residual activity [6]: 100%
- residual activity [7]: 113%
- residual activity [8]: 92.6%
- residual activity [9]: 102%
- residual activity [10]: 99.9%
- residual activity [11]: 101%
- residual activity [12]: 93.5%
- residual activity [13]: 94.8%
- residual activity [14]: 99%
- residual activity [15]: 104%
- residual activity [16]: 92.7%
- residual activity [17]: 111%
- residual activity [18]: 92.6%
- residual activity [19]: 87.6%
- residual activity [20]: 102%
- residual activity [21]: 87.8%
- residual activity [22]: 114%
- residual activity [23]: 97.2%
- residual activity [24]: 88.4%
- residual activity [25]: 103%
- residual activity [26]: 103%
- residual activity [27]: 95.5%
- residual activity [28]: 94.6%
- residual activity [29]: 89.9%
- residual activity [30]: 90.2%
- residual activity [31]: 97.7%
- residual activity [32]: 98.1%
- residual activity [33]: 101%
- residual activity [34]: 96.7%
- residual activity [35]: 96.7%
- residual activity [36]: 109%
- residual activity [37]: 97.9%
- residual activity [38]: 93.3%
- residual activity [39]: 102%
- residual activity [40]: 85.4%
